Results: patent US12497610B2, “Functional genomics using CRISPR-CAS systems for saturating mutagenesis of non-coding elements, compositions, methods, libraries and applications thereof” (THE BROAD INSTITUTE, INC., priority 2015, dated 2025)

Test system: human BCL11A erythroid enhancer
Assay: Tiled pooled CRISPR-Cas9 screen for in situ functional mapping of the human BCL11A erythroid enhancer (HbF-high/HbF-low sort, sgRNA deep sequencing)
Assay type: cell-based
Settings: for Enrichment Score: HbF enrichment, human library NGG and NGG RC sgRNAs filtered for enrichment score >0.259; for Dropout Score: human library sgRNAs that produced HbF enrichment over 0.259
Excerpt: Every 20-mer sequence upstream of an NGG or NAG PAM sequence on the sense or anti-sense strand was identified for both the human and mouse orthologous +55, +58, and +62 DNase hypersensitive site (DHS) as well as BCL11A/BCL11a exon 2. Relative to the human hg 19 reference genome, a reference was used with the following substitutions to approximate a common low-HbF associated haplotype: rs1427407-G, rs1896293-T, rs6706648-T, rs6738440-G, rs7606173-C. Each of the sgRNA oligos were synthesized as previously described (37,41,64) and cloned using a Gibson Assembly master mix (New England Biolabs) into lentiGuide-Puro (Addgene plasmid ID 52963) BsmBI digested, PCR purified, and dephosphorylated. Gibson Assembly products were transformed to electrocompetent E. cloni cells (Lucigen). Sufficient colonies were isolated to ensure 90X library coverage for both human and mouse libraries. Plasmid libraries were deep sequenced (described below) to confirm representation.
Tiled Pooled CRISPR-Cas9 Screen for In Situ Functional Mapping the Human BCL11A Erythroid Enhancer.
HUDEP clone 2 (HUDEP-2) was utilized as previously described by from Nakamura and colleagues (49). HUDEP-2 cells were expanded in StemSpan SFEM (Stem Cell Technologies) supplemented with 10^−6 M dexamethasone (Sigma), 100 ng/mL human stem cell factor (SCF) (R&D), 3 IU/mL erythropoietin (Amgen), 1% L-glutamine (Life Technologies), and 2% penicillin/streptomycin (Life Technologies). 1 μg/mL doxycycline (Sigma) was included in the culture to induce expression of the human papilloma virus type 16 E6/E7 genes (49). HUDEP-2 cells were differentiated in Iscove's Modified Dulbecco's Medium (IMDM) supplemented with 330 μg/mL halo-transferrin (Sigma), 10 μg/mL recombinant human insulin (Sigma), 2 IU/mL heparin (Sigma), 5% human solvent detergent pooled plasma AB (Rhode Island Blood Center), 3 IU/mL erythropoietin (Amgen), 100 ng/mL human stem cell factor (SCF) (R&D), 1 μg/mL doxycycline (Sigma), 1% L-glutamine (Life Technologies), and 2% penicillin/streptomycin (Life Technologies).
HUDEP-2 cells with stable Cas9 expression were transduced at low multiplicity with the human sgRNA library lentivirus pool while in expansion medium. […] Cell numbers were maintained throughout the experiment at levels adequate to exceed 1000× representation of the library. 10 μg/mL blasticidin (Sigma) and 1 μg/mL puromycin (Sigma) were added 24 hours after transduction to select for lentiviral library integrants in cells with Cas9. Cells were cultured in expansion media for one week followed by differentiation media for an additional week.
Intracellular staining was performed by fixing cells with 0.05% glutaraldehyde (grade II) (Sigma) for 10 minutes at room temperature. Cells were centrifuged for 5 minutes at 350 g and then resuspended in 0.1% Triton-X100 (Life Technologies) for 5 minutes at room temperature for permeabilization. Triton X-100 was diluted with phosphate buffered saline (PBS) and then centrifuged at 350 g for 15 minutes. Cells were stained with anti-human antibodies for HbF (clone HbF-1 with FITC or APC conjugation; Life Technologies) and B-hemoglobin antibody (clone 37-8 with PerCP-Cy5 or PE conjugation; Santa Cruz) for 20 minutes in the dark. Cells were washed to remove unbound antibody prior to FACS analysis. 0.2 μg HbF and 2 μg of HbA CB-hemoglobin) antibodies were used per 5 million cells. Control cells exposed to a nontargeting sgRNA sample and BCL11A exon 2 were used as negative and positive controls respectively to establish flow cytometry conditions. Populations of cells with the top and bottom 10% of expression of HbF were sorted by FACS.
After sorting the HbF-high and HbF-low pools, library preparation and deep sequencing was performed as previously described (37). Briefly, genomic DNA was extracted using the Qiagen Blood and Tissue kit. […]

| Substance | Enrichment Score | Dropout Score |
| --- | --- | --- |
| BCL_00008_H_D55 (guide TGAAACCAAGCTTCCTCTGCNGG; listed as DNA, chemistry not given here) | 0.2741 | −0.2303 |
| BCL_00012_H_D55 (guide AAGTGAGCCAGGTGATAGAANGG; listed as DNA, chemistry not given here) | 0.3511 | −0.01983 |
| BCL_00027_H_D55 (guide CCCATGGAGGTGGGGAGATGNGG; listed as DNA, chemistry not given here) | 0.2823 | −0.4562 |
| BCL_00031_H_D55 (guide CTGGCAGACCCTCAAGAGCANGG; listed as DNA, chemistry not given here) | 0.3216 | −1.354 |
| BCL_00051_H_D55 (guide GGAGGTGTGGAGGGGATAACNGG; listed as DNA, chemistry not given here) | 0.3141 | −0.1655 |
| BCL_00057_H_D55 (guide GGAAGGGCCTCTATGTAGACNGG; listed as DNA, chemistry not given here) | 0.46 | −0.4451 |
| BCL_00058_H_D55 (guide CCTCTATGTAGACGGGTGTGNGG; listed as DNA, chemistry not given here) | 0.3237 | −0.4848 |
| BCL_00062_H_D55 (guide AGCAGCCCTGGGCACAGAAGNGG; listed as DNA, chemistry not given here) | 0.3251 | −0.6401 |
| BCL_00064_H_D55 (guide TGCCAACAGTGATAACCAGCNGG; listed as DNA, chemistry not given here) | 0.5108 | −0.3581 |
| BCL_00065_H_D55 (guide GCCAACAGTGATAACCAGCANGG; listed as DNA, chemistry not given here) | 0.4886 | −0.5415 |
| BCL_00073_H_D55 (guide AGCACACAAGATGCACACCCNGG; listed as DNA, chemistry not given here) | 0.4199 | −0.8372 |
| BCL_00082_H_D55 (guide TCACAGGGTGTGCCCTGAGANGG; listed as DNA, chemistry not given here) | 0.4174 | −1.087 |
| BCL_00084_H_D55 (guide AGGGTGTGCCCTGAGAAGGTNGG; listed as DNA, chemistry not given here) | 0.311 | −0.3691 |
| BCL_00085_H_D55 (guide GGGTGTGCCCTGAGAAGGTGNGG; listed as DNA, chemistry not given here) | 0.5011 | −0.6263 |
| BCL_00086_H_D55 (guide CTCCAAGCATTGCATCATCCNGG; listed as DNA, chemistry not given here) | 0.6343 | −0.2703 |
| BCL_00087_H_D55 (guide CATTGCATCATCCTGGTACCNGG; listed as DNA, chemistry not given here) | 0.438 | −0.2253 |
| BCL_00088_H_D55 (guide GCATCATCCTGGTACCAGGANGG; listed as DNA, chemistry not given here) | 0.4386 | −0.3713 |
| BCL_00089_H_D55 (guide TCCTGGTACCAGGAAGGCAANGG; listed as DNA, chemistry not given here) | 0.3559 | −0.7862 |
| BCL_00090_H_D55 (guide CCTGGTACCAGGAAGGCAATNGG; listed as DNA, chemistry not given here) | 0.4651 | −0.5292 |

| Substance | Enrichment Score | Dropout Score |
| --- | --- | --- |
| BCL_00091_H_D55 (guide CCCACTTCCCTTCCTAGAATNGG; listed as DNA, chemistry not given here) | 1.168 | −0.5042 |
| BCL_00092_H_D55 (guide TTCCCTTCCTAGAATTGGCCNGG; listed as DNA, chemistry not given here) | 0.4035 | −0.4369 |
| BCL_00093_H_D55 (guide TCCCTTCCTAGAATTGGCCTNGG; listed as DNA, chemistry not given here) | 0.5283 | −0.5616 |
| BCL_00096_H_D55 (guide AGCAAATAGGCTTAGTGTGCNGG; listed as DNA, chemistry not given here) | 0.3521 | −0.2396 |
| BCL_00108_H_D55 (guide TCTGAGGAGCTAGAGACTTGNGG; listed as DNA, chemistry not given here) | 0.3065 | −0.6499 |
| BCL_00130_H_D58 (guide GGAGTATGGGGAGAGAAGAGNGG; listed as DNA, chemistry not given here) | 0.3752 | −2.212 |
| BCL_00131_H_D58 (guide TGGGGAGAGAAGAGTGGAAANGG; listed as DNA, chemistry not given here) | 0.2698 | −0.3654 |
| BCL_00135_H_D58 (guide CCATCTCCCTAATCTCCAATNGG; listed as DNA, chemistry not given here) | 0.2985 | −0.04502 |
| BCL_00154_H_D58 (guide AGGGAAAAGGGAGAGGAAAANGG; listed as DNA, chemistry not given here) | 0.4446 | −0.3992 |
| BCL_00160_H_D58 (guide TCAGGGGGAGGCAAGTCAGTNGG; listed as DNA, chemistry not given here) | 0.3294 | −0.318 |
| BCL_00181_H_D58 (guide CCTTCCGAAAGAGGCCCCCCNGG; listed as DNA, chemistry not given here) | 0.3399 | 0.2621 |
| BCL_00182_H_D58 (guide CTTCCGAAAGAGGCCCCCCTNGG; listed as DNA, chemistry not given here) | 0.2942 | 0.02396 |
| BCL_00183_H_D58 (guide AAGAGGCCCCCCTGGGCAAANGG; listed as DNA, chemistry not given here) | 0.7853 | −0.5913 |
| BCL_00184_H_D58 (guide CCTGGGCAAACGGCCACCGANGG; listed as DNA, chemistry not given here) | 0.3155 | −0.5414 |
| BCL_00185_H_D58 (guide GCAAACGGCCACCGATGGAGNGG; listed as DNA, chemistry not given here) | 0.3196 | −0.516 |
| BCL_00186_H_D58 (guide CACGCCCCCACCCTAATCAGNGG; listed as DNA, chemistry not given here) | 0.8971 | −0.7965 |
| BCL_00187_H_D58 (guide ATCAGAGGCCAAACCCTTCCNGG; listed as DNA, chemistry not given here) | 2.122 | −0.7444 |
| BCL_00210_H_D62 (guide TAAACAGCCACCCCACACCCNGG; listed as DNA, chemistry not given here) | 0.7026 | −0.8705 |
| BCL_00225_H_D62 (guide ACCTGTAATCCCAGCACTTTNGG; listed as DNA, chemistry not given here) | 0.3328 | −8.821 |
